Earlier results on 3 compounds are cited in EP0358033B1, “Radical polymerizable compositions and their use” (Henkel Kommanditgesellschaft auf Aktien, priority 1988, dated 1990).

SMILES strings stand for the structures.

The conditions of this series: free acid.
As to `O=C(O)C(Cl)Cl` [Dichloressigsäure], the pKS-Wert is ~1,3.

For the compound `O=C(O)C(Cl)(Cl)Cl` [Trichloressigsäure], the pKS-Wert is ~0,6.

Regarding `CC(=O)O` [Essigsäure], the pKS-Wert is listed as ~4,76.
